# Values quoted from earlier work as cited in patent publication US20090068287A1, “Novel topical formulations of flucytosine and uses thereof” (priority 2007, published 2009).
# Assays:
# [1] = tested on: clinical yeast isolates
# [2] = tested on: C. glabrata; details: boric acid 600 mg/day 2 to 3 weeks; flucytosine cream nightly for 14 days
# [3] = tested on: C. albicans; details: 104 patients with vulvovaginal candidiasis
# [4] = tested on: Candida albicans; details: 342 Candida albicans isolates
# [5] = tested on: C. tropicalis; details: 70 C. tropicalis isolates
# [6] = tested on: C. glabrata; details: 68 C. glabrata isolates
# [7] = tested on: C. parapsilosis; details: 65 C. parapsilosis isolates
# [8] = human, in vivo
# [9] = tested on: C. tropicalis; details: 28 patients on miconazole nitrate, 13 on clotrimazole, nightly for seven nights; 3 secondarily on ketoconazole 200 mg for 14 days
smiles,measurement,setting,value
C[C@@H]1[C@H](O)[C@@H](C)/C=C/C=C/C=C/C=C/C=C/C=C/C=C/[C@H](O[C@@H]2O[C@H](C)[C@@H](O)[C@H](N)[C@@H]2O)C[C@@H]2O[C@](O)(C[C@@H](O)C[C@@H](O)[C@H](O)CC[C@@H](O)C[C@@H](O)CC(=O)O[C@H]1C)C[C@H](O)[C@H]2C(=O)O [amphotericin B],cross-resistance of fluconazole/itraconazole resistant C. albicans isolates,[1],no cross-resistance
OB(O)O [boric acid],"clinical and mycological success / successful outcome, number of women",[2],47 of 73
same,"clinical and mycological success / successful outcome, percent of women",[2],64%
OC(Cn1cncn1)(Cn1cncn1)c1ccc(F)cc1F [fluconazole],"resistant C. albicans isolated, share of the cases",[3],13.46%
same,yeast strains resistant,[1]; 227 clinical yeast isolates,Almost thirteen percent
same,isolates showing resistance,[4],7.6%
same,isolates resistant,[5],27.1%
same,isolates resistant,[6],10.3%
same,isolates resistant,[7],4.6%
"Nc1nc(=O)[nH]cc1F [flucytosine, 4-amino-5-fluoropyrimidin-2(1H)-one]",plasma level that led to bone marrow depression and hepatotoxicity,[8],greater than 100 mg/L
CC(=O)N1CCN(c2ccc(OCC3COC(Cn4ccnc4)(c4ccc(Cl)cc4Cl)O3)cc2)CC1 (stereo not drawn) [ketoconazole],cross-resistance of fluconazole/itraconazole resistant C. albicans isolates,[1],decreased susceptibilities
same,isolates resistant,[5],2.9%
same,patients with recurrences,[9],all three
Clc1ccc(COC(Cn2ccnc2)c2ccc(Cl)cc2Cl)c(Cl)c1 (stereo not drawn) [miconazole],cross-resistance of fluconazole/itraconazole resistant C. albicans isolates,[1],decreased susceptibilities
C[C@@H]1[C@H](O)[C@@H](C)/C=C/C=C/CC/C=C/C=C/C=C/C=C/C(O[C@H]2O[C@H](C)[C@@H](O)[C@H](N)[C@@H]2O)CC2O[C@](O)(CC(O)C(O)CCC(O)CC(O)CC(O)CC(=O)O[C@H]1C)CC(O)C2C(=O)O (stereo partly drawn) [nystatin],cross-resistance of fluconazole/itraconazole resistant C. albicans isolates,[1],no cross-resistance
